Key:
[1] = tested on: BT20, SKBR3, MCF-7, T47D, and ZR75-1; conditions: reference 63; cited from earlier work
MCF-7 cells = experiment: Cell viability by the MTT method; format: cell-based, human; conditions: taxol 10 μM with or without curcumin 10 μM, 72 h
NF-κB [2] = experiment: EMSA of paclitaxel-induced NF-κB activation in MCF-7 cells; format: cell-based, human; conditions: curcumin pretreatment 2 h, then taxol 30 μM 12 hrs, EMSA of nuclear extract
Protocol: Nuclear extract was prepared and EMSA performed using 8 μg of nuclear protein. […] The nuclear extracts were prepared and analyzed by EMSA. The specificity of NF-κB can be examined by supershift analysis using antibodies against p50 and p65 subunits of NF-κB as described (109).

NF-κB [3] = experiment: EMSA of TNF-dependent NF-κB activation in MDA-MB 435 cells; format: cell-based, human; conditions: curcumin 0 to 50 μM 4 h, then 0.1 nM TNF 30 min
Protocol: MCF-7 cells treated with 0 and 0.1 nM TNF was included as negative and positive control. […] The nuclear extracts were prepared and analyzed by EMSA. The specificity of NF-κB can be examined by supershift analysis using antibodies against p50 and p65 subunits of NF-κB as described (109).

[4] = tested on: MDA-MB-435 breast cancer cells; experiment: Breast cancer metastasis after primary tumor removal, mammary fatpad xenograft; format: in vivo, female nude mice; conditions: for Incidence of macroscopic lung metastases / Median range of mets: 5 weeks after tumor removal; for Incidence of macroscopic lung metastases: paclitaxel 10 mg/kg i.p. day 10, 17, 24, 2% curcumin (w/w) diet; for Mean tumor Weight: MDA-MB-435 mammary fatpad tumors in nude mice; for Mean tumor Weight / Median range of mets: paclitaxel 10 mg/kg i.p., 2% curcumin diet; for Median range of mets: number of macroscopic lung metastases
Protocol: Human breast cancer cells (MDA-MB-231 or MDA-MB-435) that express constitutively active NF-κB can be injected into the mammary fatpad of female nude mice as previously described (127). […] Two millions MDA-MB-435 breast cancer cells were injected into the mammary fatpad of female nude mice. […] The treatment continue for up to 5 weeks after tumor removal, at which time the mice were killed and the number of visible metastases and presence of recurrent tumors or metastases in other organs were recorded. The lungs were fixed in 10% buffered formalin and paraffin-embedded section were stained with H&E to determine the incidence of micrometastases, or with antibodies recognizing the p65 subunit of NF-κB and HER2/neu. […] The significance of differences in the incidence of lung metastasis in the different groups was assessed using Fisher's exact test.

Compound | Growth of breast tumor cell lines [1] | cytotoxic effects of paclitaxel (cell viability, MTT) (MCF-7 cells) | paclitaxel-induced NF-κB induction (NF-κB [2]) | TNF-dependent NF-κB activation (NF-κB [3]) | Incidence of macroscopic lung metastases [4] | Mean tumor Weight [4] | effect on breast cancer metastases to the lung ([4]; mouse xenograft model, Table 1 and FIG. 5) | Median range of mets [4]
COc1cc(/C=C/C(=O)CC(=O)/C=C/c2ccc(O)c(OC)c2)ccc1O [Curcumin, diferuloylmethane] | completely inhibited | enhances the cytotoxic effects of paclitaxel | downregulated paclitaxel-induced NF-κB induction in MCF-7 cells in a dose dependent manner | inhibited TNF-dependent NF-κB activation | 71% | 0.71 ± 0.3 g | enhances the effect of paclitaxel and suppresses breast cancer metastases to the lung | 5 (0–44)
CC(=O)O[C@H]1C(=O)[C@@]2(C)[C@H]([C@H](OC(=O)c3ccccc3)[C@]3(O)C[C@H](OC(=O)[C@H](O)[C@@H](NC(=O)c4ccccc4)c4ccccc4)C(C)=C1C3(C)C)[C@]1(OC(C)=O)CO[C@@H]1C[C@@H]2O [paclitaxel, Paclitaxel] |  |  |  |  | 83% | 0.74 ± 0.4 g |  | 20 (0–>100)
